We go through two molecules from patent US9738902B2, “Modified PYR/PYL receptors activated by ligands” (priority 2013, dated 2017).

The target of one assay is T1, PYR1 K59R T162L (Arabidopsis thaliana, UniProt O49686, K59R/T162L).
T1 construct: expressed in transfected cells; host or cells: S. cerevisiae Y190
Kind of assay: Y2H Pocket Library Screen (HAB1, X-gal). Format: cell-based. The gist of the method: (§1)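 Each mutant receptor was expressed with HAB1 in the Y190 reporter strain. Cells were spotted onto SD agar minus Leu and Trp supplemented with a 100 μM test compound. Plates incubated two days at 30° C, then colonies were lysed with chloroform and stained with X-gal.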

Another assay has as its target T2, PYR1 K59R E141L (Arabidopsis thaliana, UniProt O49686, E141L/K59R).
T2 construct: expressed in transfected cells; host or cells: S. cerevisiae Y190 two-hybrid reporter strain
Briefly: Y2H Pocket Library Screen (HAB1, X-gal). Format: cell-based. An outline of the steps: as §1

In another assay the target is T3, PYR1 K59R V164L (Arabidopsis thaliana, UniProt O49686, K59R/V164L).
T3 construct: expressed in transfected cells; host or cells: S. cerevisiae Y190
T3 sequence (O49686 whole entry K59R/V164L): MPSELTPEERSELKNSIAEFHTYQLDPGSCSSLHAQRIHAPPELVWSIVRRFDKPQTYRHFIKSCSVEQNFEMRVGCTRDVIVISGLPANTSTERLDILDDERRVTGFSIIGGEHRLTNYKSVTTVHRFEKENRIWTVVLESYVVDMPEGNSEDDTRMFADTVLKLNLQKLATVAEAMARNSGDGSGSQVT
T3 sequence (Q9CAJ0 23-511 partner): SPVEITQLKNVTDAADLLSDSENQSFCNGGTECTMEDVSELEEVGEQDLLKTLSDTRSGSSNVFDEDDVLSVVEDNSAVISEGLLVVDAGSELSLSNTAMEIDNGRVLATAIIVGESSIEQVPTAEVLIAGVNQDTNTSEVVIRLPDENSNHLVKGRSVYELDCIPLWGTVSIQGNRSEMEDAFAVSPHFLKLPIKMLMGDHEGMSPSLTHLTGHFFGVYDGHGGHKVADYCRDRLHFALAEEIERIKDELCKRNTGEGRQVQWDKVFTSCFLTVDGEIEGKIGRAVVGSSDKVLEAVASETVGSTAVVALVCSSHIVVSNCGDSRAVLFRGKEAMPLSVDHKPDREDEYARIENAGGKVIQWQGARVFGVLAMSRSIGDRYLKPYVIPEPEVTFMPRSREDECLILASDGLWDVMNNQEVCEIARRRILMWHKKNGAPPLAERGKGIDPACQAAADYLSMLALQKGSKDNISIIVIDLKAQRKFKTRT
Kind of assay: Y2H Pocket Library Screen (HAB1, X-gal). Type of assay: cell-based. An outline of the steps: as §1

The target of the next assay is T4, PYR1 K59R V164T (Arabidopsis thaliana, UniProt O49686, K59R/V164T).
T4 construct: expressed in transfected cells; host or cells: S. cerevisiae Y190 two-hybrid reporter strain
T4 sequence (O49686 whole entry K59R/V164T): as the sequence (O49686 whole entry K59R/V164L) above, with L164T counted along it
T4 sequence (Q9CAJ0 23-511 partner): as the sequence (Q9CAJ0 23-511 partner) above
Briefly: Y2H Pocket Library Screen (HAB1, X-gal). Type of assay: cell-based. An outline of the steps:
as §1

For a further assay, the target named is T5, PYR1 K59R T162K (Arabidopsis thaliana, UniProt O49686, K59R/T162K).
T5 construct: expressed in transfected cells; host or cells: S. cerevisiae Y190
T5 sequence (O49686 whole entry K59R/T162K): as the sequence (O49686 whole entry K59R/V164L) above, with T162K, L164V counted along it
T5 sequence (Q9CAJ0 23-511, further chain): as the sequence (Q9CAJ0 23-511 partner) above
Briefly: Y2H Pocket Library Screen (HAB1, X-gal). Type of assay: cell-based. An outline of the steps: as §1

The next assay addresses T6, PYR1 K59R V164G (Arabidopsis thaliana, UniProt O49686, K59R/V164G).
T6 construct: expressed in transfected cells; host or cells: S. cerevisiae Y190
Kind of assay: Y2H Pocket Library Screen (HAB1, X-gal). Type of assay: cell-based. An outline of the steps:
as §1

A further assay has as its target T7, PYR1 K59R V164C (Arabidopsis thaliana, UniProt O49686, K59R/V164C).
T7 construct: expressed in transfected cells; host or cells: S. cerevisiae Y190
Briefly: Y2H Pocket Library Screen (HAB1, X-gal). Format: cell-based. The gist of the method:
as §1

Another assay concerns the target T8, PYR1 K59R V164M (Arabidopsis thaliana, UniProt O49686, K59R/V164M).
T8 construct: expressed in transfected cells; host or cells: S. cerevisiae Y190
Briefly: Y2H Pocket Library Screen (HAB1, X-gal). Type of assay: cell-based. An outline of the steps:
as §1

The target of another assay is T9, PYR1 K59R N167D (Arabidopsis thaliana, UniProt O49686, K59R/N167D).
T9 construct: expressed in transfected cells; host or cells: S. cerevisiae Y190 two-hybrid reporter strain
T9 sequence (O49686 whole entry K59R/N167D): as the sequence (O49686 whole entry K59R/V164L) above, with L164V, N167D counted along it
T9 sequence (Q9CAJ0 23-511 partner): as the sequence (Q9CAJ0 23-511 partner) above
Briefly: Y2H Pocket Library Screen (HAB1, X-gal). Format: cell-based. An outline of the steps: as §1

A further assay concerns the target T10, PYR1 K59R N167C (Arabidopsis thaliana, UniProt O49686, K59R/N167C).
T10 construct: expressed in transfected cells; host or cells: S. cerevisiae Y190 two-hybrid reporter strain
Briefly: Y2H Pocket Library Screen (HAB1, X-gal). Format: cell-based. An outline of the steps: as §1

A further assay has as its target T11, PYR1 K59R A160S (Arabidopsis thaliana, UniProt O49686, A160S/K59R).
T11 construct: expressed in transfected cells; host or cells: S. cerevisiae Y190
Briefly: Y2H Pocket Library Screen (HAB1, X-gal). Format: cell-based. The gist of the method: as §1

Another assay has as its target T12, PYR1 K59R A160T (Arabidopsis thaliana, UniProt O49686, A160T/K59R).
T12 construct: expressed in transfected cells; host or cells: S. cerevisiae Y190
Briefly: Y2H Pocket Library Screen (HAB1, X-gal). Type of assay: cell-based. An outline of the steps:
as §1

Another assay concerns the target T13, PYR1 K59R V164F (Arabidopsis thaliana, UniProt O49686, K59R/V164F).
T13 construct: expressed in transfected cells; host or cells: S. cerevisiae Y190
Briefly: Y2H Pocket Library Screen (HAB1, X-gal). Format: cell-based. The gist of the method:
as §1

The next assay addresses T14, PYR1 K59R V164Q (Arabidopsis thaliana, UniProt O49686, K59R/V164Q).
T14 construct: expressed in transfected cells; host or cells: S. cerevisiae Y190 two-hybrid reporter strain
Briefly: Y2H Pocket Library Screen (HAB1, X-gal). Type of assay: cell-based. The gist of the method: as §1

The target of the next assay is T15, PYR1 K59R L87P (Arabidopsis thaliana, UniProt O49686, K59R/L87P).
T15 construct: expressed in transfected cells; host or cells: S. cerevisiae Y190 yeast two-hybrid reporter strain
T15 sequence (O49686 whole entry K59R/L87P): as the sequence (O49686 whole entry K59R/V164L) above, with L87P, L164V counted along it
T15 sequence (Q9CAJ0 23-511 partner): as the sequence (Q9CAJ0 23-511 partner) above
Briefly: Y2H Pocket Library Screen (HAB1, X-gal). Type of assay: cell-based. An outline of the steps: as §1

The target in the next assay is T16, PYR1 K59R V164N (Arabidopsis thaliana, UniProt O49686, K59R/V164N).
T16 construct: expressed in transfected cells; host or cells: S. cerevisiae Y190 two-hybrid reporter strain
T16 sequence (O49686 whole entry K59R/V164N): as the sequence (O49686 whole entry K59R/V164L) above, with L164N counted along it
T16 sequence (Q9CAJ0 23-511 partner): as the sequence (Q9CAJ0 23-511 partner) above
Briefly: Y2H Pocket Library Screen (HAB1, X-gal). Type of assay: cell-based. An outline of the steps:
as §1

In the next assay the target is T17, PYR1 K59R V164S (Arabidopsis thaliana, UniProt O49686, K59R/V164S).
T17 construct: expressed in transfected cells; host or cells: S. cerevisiae Y190 two-hybrid reporter strain
T17 sequence (O49686 whole entry K59R/V164S): as the sequence (O49686 whole entry K59R/V164L) above, with L164S counted along it
T17 sequence (Q9CAJ0 23-511 partner): as the sequence (Q9CAJ0 23-511 partner) above
Briefly: Y2H Pocket Library Screen (HAB1, X-gal). Type of assay: cell-based. The gist of the method: as §1

The target of the next assay is T18, PYR1 K59R N167Q (Arabidopsis thaliana, UniProt O49686, K59R/N167Q).
T18 construct: expressed in transfected cells; host or cells: S. cerevisiae Y190 two-hybrid reporter strain
T18 sequence (O49686 whole entry K59R/N167Q): as the sequence (O49686 whole entry K59R/V164L) above, with L164V, N167Q counted along it
T18 sequence (Q9CAJ0 23-511, further chain): as the sequence (Q9CAJ0 23-511 partner) above
Briefly: Y2H Pocket Library Screen (HAB1, X-gal). Format: cell-based. The gist of the method: as §1

Another assay concerns the target T19, PYR1 K59R N167T (Arabidopsis thaliana, UniProt O49686, K59R/N167T).
T19 construct: expressed in transfected cells; host or cells: S. cerevisiae Y190 two-hybrid reporter strain
Kind of assay: Y2H Pocket Library Screen (HAB1, X-gal). Format: cell-based. An outline of the steps:
as §1

Assay [1] relates to 35S::PYR1^MANDI lines MDP1, MDP2, MDP3. Briefly: seed germination assay, 250 nM mandipropamid. Format: in vivo, Arabidopsis. The note with it: 3 days post-stratification. The source says:
To further characterize the physiological effects of the PYR1^MANDI/mandipropamid interaction, we characterized three independently generated transgenic Arabidopsis lines in more detail. These lines, initially named E9, E16 and E31 are henceforth referred to as MPD1, MPD2 and MPD3. Each of these lines is homozygous for a single 35S::PYR1^MANDI insertion site and is the result of independent transformation events. We first used germination assays to characterize the relative mandipropamid sensitivity of these lines. Seeds for the transgenics and wild type control were surface sterilized with bleach and then stratified for 4 days at 4° C. on 0.7% agar petri plates containing ½ MS salts and 0.5% sucrose in addition to either 250 nM mandipropamid or a mock treatment of 0.1% DMSO (the carrier solvent). After stratification, the plates were transferred to a growth chamber operating on a 16-hour day length cycle. Seed germination was scored 3 days post-stratification. […] To more definitively assess the relative sensitivity of the MDP1 and MDP2 lines to mandipropamid, we conducted germination dose-response experiments (using the same procedure described above) and confirmed that the MDP1 line is more sensitive to mandipropamid than MDP2 (FIG. 7B).

The target of the next assay is T20, PYR1 K59R F108N (Arabidopsis thaliana, UniProt O49686, F108N/K59R).
T20 construct: expressed in transfected cells; host or cells: S. cerevisiae Y190 yeast two-hybrid reporter strain
T20 sequence (O49686 whole entry K59R/F108N): as the sequence (O49686 whole entry K59R/V164L) above, with F108N, L164V counted along it
T20 sequence (Q9CAJ0 23-511 partner): as the sequence (Q9CAJ0 23-511 partner) above
Kind of assay: Y2H Pocket Library Screen (HAB1, X-gal). Format: cell-based. The gist of the method:
as §1

The target in a further assay is T21, PYR1 K59R F108G (Arabidopsis thaliana, UniProt O49686, F108G/K59R).
T21 construct: expressed in transfected cells; host or cells: S. cerevisiae Y190 yeast two-hybrid reporter strain
T21 sequence (O49686 whole entry K59R/F108G): as the sequence (O49686 whole entry K59R/V164L) above, with F108G, L164V counted along it
T21 sequence (Q9CAJ0 23-511 partner): as the sequence (Q9CAJ0 23-511 partner) above
Briefly: Y2H Pocket Library Screen (HAB1, X-gal). Type of assay: cell-based. An outline of the steps: as §1

The target of the next assay is T22, PYR1 K59R F108Q (Arabidopsis thaliana, UniProt O49686, F108Q/K59R).
T22 construct: expressed in transfected cells; host or cells: S. cerevisiae Y190 yeast two-hybrid reporter strain
T22 sequence (O49686 whole entry K59R/F108Q): as the sequence (O49686 whole entry K59R/V164L) above, with F108Q, L164V counted along it
T22 sequence (Q9CAJ0 23-511 partner): as the sequence (Q9CAJ0 23-511 partner) above
Briefly: Y2H Pocket Library Screen (HAB1, X-gal). Format: cell-based. An outline of the steps:
as §1

T8 sequence (O49686 whole entry K59R/V164M): as the sequence (O49686 whole entry K59R/V164L) above, with L164M counted along it
T8 sequence (Q9CAJ0 23-511 partner): as the sequence (Q9CAJ0 23-511 partner) above
T2 sequence (O49686 whole entry K59R/E141L): as the sequence (O49686 whole entry K59R/V164L) above, with E141L, L164V counted along it
T2 sequence (Q9CAJ0 23-511 partner): as the sequence (Q9CAJ0 23-511 partner) above
T11 sequence (O49686 whole entry K59R/A160S): as the sequence (O49686 whole entry K59R/V164L) above, with A160S, L164V counted along it
T11 sequence (Q9CAJ0 23-511 partner): as the sequence (Q9CAJ0 23-511 partner) above
T13 sequence (O49686 whole entry K59R/V164F): as the sequence (O49686 whole entry K59R/V164L) above, with L164F counted along it
T13 sequence (Q9CAJ0 23-511 partner): as the sequence (Q9CAJ0 23-511 partner) above
T6 sequence (O49686 whole entry K59R/V164G): as the sequence (O49686 whole entry K59R/V164L) above, with L164G counted along it
T6 sequence (Q9CAJ0 23-511 partner): as the sequence (Q9CAJ0 23-511 partner) above
T1 sequence (O49686 whole entry K59R/T162L): as the sequence (O49686 whole entry K59R/V164L) above, with T162L, L164V counted along it
T1 sequence (Q9CAJ0 23-511 partner): as the sequence (Q9CAJ0 23-511 partner) above
T12 sequence (O49686 whole entry K59R/A160T): as the sequence (O49686 whole entry K59R/V164L) above, with A160T, L164V counted along it
T12 sequence (Q9CAJ0 23-511 partner): as the sequence (Q9CAJ0 23-511 partner) above
T7 sequence (Q9CAJ0 23-511, stated change not applied): as the sequence (Q9CAJ0 23-511 partner) above
T7 sequence (O49686 whole entry K59R/V164C): as the sequence (O49686 whole entry K59R/V164L) above, with L164C counted along it
T10 sequence (O49686 whole entry K59R/N167C): as the sequence (O49686 whole entry K59R/V164L) above, with L164V, N167C counted along it
T10 sequence (Q9CAJ0 23-511 partner): as the sequence (Q9CAJ0 23-511 partner) above
T19 sequence (O49686 whole entry K59R/N167T): as the sequence (O49686 whole entry K59R/V164L) above, with L164V, N167T counted along it
T19 sequence (Q9CAJ0 23-511 partner): as the sequence (Q9CAJ0 23-511 partner) above
T14 sequence (O49686 whole entry K59R/V164Q): as the sequence (O49686 whole entry K59R/V164L) above, with L164Q counted along it
T14 sequence (Q9CAJ0 23-511 partner): as the sequence (Q9CAJ0 23-511 partner) above

On to `N#Cc1c(Cl)cccc1Cl` [Dichlobenil, dichlobenil], for which the Threshold on PYR1 K59R T162L, on PYR1 K59R E141L, on PYR1 K59R V164L, on PYR1 K59R V164T, on PYR1 K59R T162K and at PYR1 K59R V164G was 100 µM each time. For the same molecule, the Threshold on PYR1 K59R V164C, on PYR1 K59R V164M, at PYR1 K59R N167D, at PYR1 K59R N167C, on PYR1 K59R A160S and on PYR1 K59R A160T was 100 µM in each case. The Threshold at PYR1 K59R V164F, at PYR1 K59R V164Q, on PYR1 K59R L87P, at PYR1 K59R V164N, on PYR1 K59R V164S and at PYR1 K59R N167Q was 100 µM in each case. The Threshold at PYR1 K59R N167T was determined as 100 µM.

As for `C#CCOc1ccc(CCNC(=O)C(OCC#C)c2ccc(Cl)cc2)cc1OC` (stereo not drawn) [Mandipropamid, mandipropamid], the seed germination result is “near complete germination inhibition” in [1] (MDP1 seed, 250 nM mandipropamid) and “minimal sensitivity” in assay [1] (MDP3, 250 nM mandipropamid). Besides, the Threshold on PYR1 K59R F108N, on PYR1 K59R F108G and at PYR1 K59R F108Q was 100 µM in each case.
